The values that follow come from patent US12729381B2, “Methods and compositions for inactivating interleukin-2-inducible t-cell kinase (ITK)” (priority 2020, dated 2026).

Non-standard residues stand in square brackets, D forms with d. No end group written: not given here. *: point of attachment. FITC = O=C1OC2(c3ccc(O)cc3Oc3cc(O)ccc32)c2ccc(NC(=S)*)cc21; pY = N[C@@H](Cc1ccc(OP(=O)(O)O)cc1)C(=O)O

This test relates to human T cells. Nature of the test: Intracellular IFN-γ and TNF-α production by primary human T cells from PBMCs (flow cytometry). It is filed as cell-based. Particulars: anti-CD3/anti-CD28 with Brefeldin A, 6 hours; vs vehicle alone. How it is done: ITK deficiency is known to enhance the development of regulatory T cells (Tregs) (Elmore et al., 2020, Owen et al., 2019) so the peptide inhibitor was tested to determine whether inhibition of the ITK: SLP76Y145 interactions using SLP76pTYR would induce Tregs. First, the frequency of Tregs was examined by expression of CD4^+ and FoxP3^+ (FIG. 18A). Next, total mouse T cells were stimulated with anti-CD3 (Sugie et al., 2004) in the presence of either SLP76pTYR, nonspecific peptide, or vehicle alone for 5 to 24 hours, and cells were harvested and examined for the presence of Tregs (CD4^+CD25^+FoxP3^+). […] Next, the effects of SLP76pTYR peptide on human PBMC samples from healthy human patients was investigated. T cells from these patients were stimulated with anti-CD3 (OKT3) (Karimi et al., 2005) for 5 minutes in the presence of SLP76pTYR or vehicle alone. […]
More specifically, FIGS. 18A-18F depict Novel peptide SLP76pTYR specifically targets SLP76: ITK signaling and enhances Treg cell development. […] (FIG. 18C) Quantification of three experiments as in (A) (FIG. 18D) Cell lysates were obtained from mouse T cells stimulated with anti-CD3 and anti-CD28 in the presence of SLP76pTYR, or vehicle alone. […] Intracellular IFN-γ and TNF-α expression by CD8^+ and CD4+ T cells was determined by flow cytometry. […]
(Flow cytometry measures light scatter and fluorescence of single cells or particles in a stream.)

In the case of “FITC Dye ^132NEEEEAPVEDDADpYEPPPSNDEEA^155-TAT ({FITC}-NEEEEAPVEDDAD[pY]EPPPSNDEEAGRKKRRQRRRPQ) [SLP76pTYR]”, the IFN-γ production entry was “significantly reduced IFN-γ and TNF-α production”; the TNF-α production result is “significantly reduced IFN-γ and TNF-α production”.
